Values quoted from earlier work as cited in patent publication US20130202650A1, “TOPICAL COMPOSITION COMPRISING A COMBINATION OF AT LEAST TWO PENETRATION ENHANCING AGENTS” (Moberg Derma AB, priority 2008, published 2013).
Structures can show the parent of a compound that is named as a salt.

Details: tBtOH-IPM (2:8) vehicle; mouse

CN1[C@@H]2CC[C@H]1C[C@@H](OC(c1ccccc1)c1ccccc1)C2 [BZ mesylate, benztropine]
BZ flux from the mesylate salt: 2020 µg/cm²/h | BZ flux, fold greater than from water: 100 fold | BZ flux, fold greater than the individual neat solvents: 44-540 fold
